Test results published in ChEMBL document CHEMBL5335795, “Development of potent isoflavone-based formyl peptide receptor 1 (FPR1) antagonists and their effects in gastric cancer cell models” (Eur J Med Chem, 2023).
Active and inactive are the calls of the source. No cut-off for these calls is given here.

Legend:
[1] = target: T1, fMet-Leu-Phe receptor (Homo sapiens, UniProt P21462); test: Antagonist activity against human FPR1 expressed in human HL-60 cells assessed as inhibition of fMLF-induced calcium mobilization preincubated for 30 mins followed by fMLF addition and measured every 5s for 240s by Fluo4AM dye based scanning fluorimetric analysis; type: functional, cell-based
T1 sequence (P21462 whole entry): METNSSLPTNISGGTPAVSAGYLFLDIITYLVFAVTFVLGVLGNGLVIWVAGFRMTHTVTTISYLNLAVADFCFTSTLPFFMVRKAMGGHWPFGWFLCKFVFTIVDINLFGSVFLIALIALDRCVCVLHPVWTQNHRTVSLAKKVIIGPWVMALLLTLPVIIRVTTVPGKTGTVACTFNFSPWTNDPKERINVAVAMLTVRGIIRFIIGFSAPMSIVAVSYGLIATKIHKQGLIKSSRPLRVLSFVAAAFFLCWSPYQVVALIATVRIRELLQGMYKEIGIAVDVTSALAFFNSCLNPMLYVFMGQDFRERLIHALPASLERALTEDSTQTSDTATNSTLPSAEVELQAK

[2] = target: T2, N-formyl peptide receptor 2 (Homo sapiens) (UniProt P25090); test: Antagonist activity against human FPR2 expressed in human HL-60 cells assessed as inhibition of WKYMVM-induced calcium mobilization preincubated for 10 mins followed by WKYMVM addition and measured every 5s for 240s by Fluo4AM dye based scanning fluorimetric analysis; type: functional, cell-based; details: time 840.0 sec
T2 sequence (whole entry): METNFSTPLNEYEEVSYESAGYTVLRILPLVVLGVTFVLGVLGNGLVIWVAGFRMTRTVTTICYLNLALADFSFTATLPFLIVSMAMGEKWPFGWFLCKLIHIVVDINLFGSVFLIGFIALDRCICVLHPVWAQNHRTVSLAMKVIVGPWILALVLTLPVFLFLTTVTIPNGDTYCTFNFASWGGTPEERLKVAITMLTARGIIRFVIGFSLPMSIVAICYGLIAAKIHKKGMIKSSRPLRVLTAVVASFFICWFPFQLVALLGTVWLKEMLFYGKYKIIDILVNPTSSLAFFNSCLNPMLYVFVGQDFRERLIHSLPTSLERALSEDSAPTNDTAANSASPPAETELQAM

[3] = target: T1, fMet-Leu-Phe receptor; test: Antagonist activity against human FPR1 expressed in human HL-60 cells assessed as inhibition of fMLF-induced calcium mobilization preincubated for 10 mins followed by fMLF addition and measured every 5s for 240s by Fluo4AM dye based scanning fluorimetric analysis; type: functional, cell-based
[4] = Metabolic stability of the compound in rat liver microsomes assessed as parent compound remaining at 10 uM preincubated for 10 mins followed by NADPH addition and measured after 30 mins by LC-MS analysis; type: ADME, Microsome; details: time 40 min, read-out: Stability
[5] = tested on: AGS; test: Induction of apoptosis in human AGS cells assessed as viable cells at 5 uM measured after 48 hrs by Muse Annexin V cytofluorimetric analysis (reference value: 85.9%); type: functional; details: read-out: Activity
[6] = tested on: NCI-N87; test: Induction of apoptosis in human NCI-N87 cells assessed as viable cells at 5 uM measured after 48 hrs by Muse Annexin V cytofluorimetric analysis (reference value: 69.9%); type: functional; details: read-out: Activity
[7] = tested on: NCI-N87; test: Induction of apoptosis in human NCI-N87 cells assessed as viable cells at 5 uM measured after 48 hrs in presence of FPR1 antagonist, fMLF by Muse Annexin V cytofluorimetric analysis (reference value: […]%); type: functional; details: read-out: Activity
[8] = tested on: AGS; test: Induction of apoptosis in human AGS cells assessed as viable cells at 5 uM measured after 48 hrs in presence of FPR1 antagonist, fMLF by Muse Annexin V cytofluorimetric analysis (reference value: 87.1%); type: functional; details: read-out: Activity

SMILES	IC50 [1] [nM]	inhibition [2]	also measured
COc1ccccc1-c1c(C(F)(F)F)oc2cc(OC(=O)c3ccco3)ccc2c1=O	440		
CCCCCCc1cc2c(=O)c(-c3cccc(OC)c3)c(C(F)(F)F)oc2cc1OC(C)=O		inactive	
Cc1oc2cc(OC(=O)c3ccco3)ccc2c(=O)c1-c1nc2ccccc2n1C	3100		
CCCCCCC(=O)Oc1cc2oc(C)c(-c3cccc(OC)c3)c(=O)c2cc1C		inactive	
CCCc1cc2c(=O)c(-c3ccccc3OC)c(C)oc2cc1OC(=O)N(C)C		inactive	
CCCCCCc1cc2c(=O)c(-c3ccccc3OC)c(C)oc2cc1OC(=O)N(C)C		inactive	IC50 [3]: Not Active
CCCCCCc1cc2c(=O)c(-c3ccccc3OC)c(C(F)(F)F)oc2cc1OC(C)=O			remaining at 0.5 h, 10 µM [4]: 0%
CCCCCCC(=O)Oc1cc2oc(C)c(-c3ccccc3OC)c(=O)c2cc1C			remaining at 0.5 h, 10 µM [4]: 0%
CCCCCCc1cc2c(=O)c(-c3nc4ccccc4n3C)c(C)oc2cc1OC(C)=O	310		
CCCc1cc2c(=O)c(-c3cccc(OC)c3)c(C)oc2cc1OC(C)=O		inactive	
CCCCCc1cc2c(=O)c(-c3ccccc3OC)c(C)oc2cc1OC(C)=O		inactive	
CCCCc1cc2c(=O)c(-c3ccccc3OC)c(C)oc2cc1OC(C)=O		inactive	
CCCCCCc1cc2c(=O)c(-c3ccccc3OC)c(C)oc2cc1OC(C)=O			remaining at 0.5 h, 10 µM [4]: 0%; viability at 5 µM [5]: 52%; viability at 5 µM [6]: 45.1%; viability at 5 µM [7]: 45.5%; viability at 5 µM [8]: 46.9%
CCc1cc2c(=O)c(-c3nc4ccccc4n3C)c(C)oc2cc1OC(C)=O	1400		
COc1ccccc1-c1c(C)oc2cc(OC(=O)c3ccco3)ccc2c1=O	1900		
